From ChEMBL document CHEMBL1132978, “Artificial neural network applied to prediction of fluorquinolone antibacterial activity by topological methods” (2000)
In brackets after ≈: the same amount, converted by molar mass.

Test system: Escherichia coli
Assay: Minimum inhibitory concentration against Escherichia coli
Format: functional

CCn1cc(C(=O)O)c(=O)c2cc(F)c(N3CC(C)NC(C)C3)cc21 (configuration not stated)
MIC: 0.4 µg/mL (≈ 1.15 µM)

CC1CN(c2cc3c(cc2F)c(=O)c(C(=O)O)cn3C(C)(C)C)CCN1 (configuration not stated)
MIC: 0.1 µg/mL (≈ 0.277 µM)

NC1CCN(c2nc3c(cc2F)c(=O)c(C(=O)O)cn3C2CC2)C1 (configuration not stated)
MIC: 0.013 µg/mL (≈ 0.0391 µM)

CN(C)CC1CCN(c2cc3c(cc2F)c(=O)c(C(=O)O)cn3C2CC2)C1 (configuration not stated)
MIC: 0.2 µg/mL (≈ 0.536 µM)

COc1c(N2CCC(N)C2)c(F)c(N)c2c(=O)c(C(=O)O)cn(C3CC3)c12 (configuration not stated)
MIC: 0.025 µg/mL (≈ 0.0664 µM)

CCOc1c(N2CCC(C)(CN)C2)c(F)c(N)c2c(=O)c(C(=O)O)cn(C3CC3)c12 (configuration not stated)
MIC: 0.2 µg/mL (≈ 0.478 µM)

CNCC1CCN(c2cc3c(cc2F)c(=O)c(C(=O)O)cn3-c2ccc(F)cc2F)C1 (configuration not stated)
MIC: 0.2 µg/mL (≈ 0.464 µM)

CCN1CCN(c2cc3c(cc2F)c(=O)c(C(=O)O)cn3CC)CC1
MIC: 0.1 µg/mL (≈ 0.288 µM)

CCNCC1CCN(c2nc3c(cc2F)c(=O)c(C(=O)O)cn3-c2ccc(F)cc2F)C1 (configuration not stated)
MIC: 0.2 µg/mL (≈ 0.448 µM)

CCNC(C)C1CCN(c2cc3c(c(N)c2F)c(=O)c(C(=O)O)cn3C2CC2)C1 (configuration not stated)
MIC: 0.1 µg/mL (≈ 0.248 µM)

CCOc1c(N2CCCC(CN)C2)c(F)cc2c(=O)c(C(=O)O)cn(C3CC3)c12 (configuration not stated)
MIC: 0.2 µg/mL (≈ 0.496 µM)

CCn1cc(C(=O)O)c(=O)c2cc(F)c(N3CCC(CNC)C3)cc21 (configuration not stated)
MIC: 3.1 µg/mL (≈ 8.92 µM)

NCC1CCCN(c2c(F)cc3c(=O)c(C(=O)O)cn(C4CC4)c3c2Cl)C1 (configuration not stated)
MIC: 0.1 µg/mL (≈ 0.254 µM)

CN1CCN(c2cc3c(cc2F)c(=O)c(C(=O)O)cn3-c2ccc(F)cc2F)CC1
MIC: 0.2 µg/mL (≈ 0.479 µM)

NC1CCN(c2nc3c(cc2F)c(=O)c(C(=O)O)cn3-c2ccc(F)cc2F)C1 (configuration not stated) [TOSUFLOXACIN]
MIC: 0.025 µg/mL (≈ 0.0618 µM)

CCC1CN(c2cc3c(cc2F)c(=O)c(C(=O)O)cn3-c2ccc(F)cc2F)CCN1 (configuration not stated)
MIC: 0.4 µg/mL (≈ 0.927 µM)

CCn1cc(C(=O)O)c(=O)c2cc(F)c(N3CCC(N)C3)cc21 (configuration not stated)
MIC: 0.4 µg/mL (≈ 1.25 µM)

CCN1CCN(c2cc3c(cc2F)c(=O)c(C(=O)O)cn3C2CCC2)CC1
MIC: 0.8 µg/mL (≈ 2.14 µM)

CNCC1CCN(c2cc3c(cc2F)c(=O)c(C(=O)O)cn3C2CCC2)C1 (configuration not stated)
MIC: 0.8 µg/mL (≈ 2.14 µM)

CCOc1c(N2CCNC(C)C2)c(F)cc2c(=O)c(C(=O)O)cn(C3CC3)c12 (configuration not stated)
MIC: 0.1 µg/mL (≈ 0.257 µM)

CCOc1c(N2CCCC(N)C2)c(F)cc2c(=O)c(C(=O)O)cn(C3CC3)c12 (configuration not stated)
MIC: 0.2 µg/mL (≈ 0.514 µM)

NCC1CCCN(c2cc3c(cc2F)c(=O)c(C(=O)O)cn3C2CC2)C1 (configuration not stated)
MIC: 0.4 µg/mL (≈ 1.11 µM)

CNCC1CCN(c2cc3c(cc2F)c(=O)c(C(=O)O)cn3C(C)(C)C)C1 (configuration not stated)
MIC: 0.4 µg/mL (≈ 1.07 µM)

NCC1CCN(c2cc3c(cc2F)c(=O)c(C(=O)O)cn3C2CC2)C1 (configuration not stated)
MIC: 0.05 µg/mL (≈ 0.145 µM)

CC1CN(c2cc3c(cc2F)c(=O)c(C(=O)O)cn3-c2ccc(F)cc2F)CC(C)N1 (configuration not stated)
MIC: 0.4 µg/mL (≈ 0.927 µM)

COc1c(N2CCC(C)(CN)C2)c(F)c(N)c2c(=O)c(C(=O)O)cn(C3CC3)c12 (configuration not stated)
MIC: 0.1 µg/mL (≈ 0.247 µM)

CC1CN(c2cc3c(cc2F)c(=O)c(C(=O)O)cn3C2CC2)CC(C)N1 (configuration not stated)
MIC: 0.05 µg/mL (≈ 0.139 µM)

COc1c(N2CCC(C)(CN)C2)c(F)cc2c(=O)c(C(=O)O)cn(C3CC3)c12 (configuration not stated)
MIC: 0.1 µg/mL (≈ 0.257 µM)

CCN1CCN(c2cc3c(cc2F)c(=O)c(C(=O)O)cn3C(C)C)CC1
MIC: 1.6 µg/mL (≈ 4.43 µM)

CC1(CN)CCN(c2cc3c(cc2F)c(=O)c(C(=O)O)cn3C2CC2)C1 (configuration not stated)
MIC: 0.1 µg/mL (≈ 0.278 µM)

Nc1c(F)c(N2CCC(N)C2)c(F)c2c1c(=O)c(C(=O)O)cn2C1CC1 (configuration not stated)
MIC: 0.006 µg/mL (≈ 0.0165 µM)

CNCC1CCN(c2cc3c(cc2F)c(=O)c(C(=O)O)cn3C2CC2)C1 (configuration not stated)
MIC: 0.2 µg/mL (≈ 0.556 µM)

COc1c(N2CCC(CN)C2)c(F)cc2c(=O)c(C(=O)O)cn(C3CC3)c12 (configuration not stated)
MIC: 0.05 µg/mL (≈ 0.133 µM)

COc1c(N2CCC(N)C2)c(F)cc2c(=O)c(C(=O)O)cn(C3CC3)c12 (configuration not stated)
MIC: 0.025 µg/mL (≈ 0.0692 µM)

COc1c(N2CCC(N)CC2)c(F)c(N)c2c(=O)c(C(=O)O)cn(C3CC3)c12
MIC: 0.1 µg/mL (≈ 0.256 µM)

COc1c(N2CCN(C)CC2)c(F)cc2c(=O)c(C(=O)O)cn(C3CC3)c12
MIC: 0.1 µg/mL (≈ 0.266 µM)

CCOc1c(N2CCC(C)C2)c(F)cc2c(=O)c(C(=O)O)cn(C3CC3)c12 (configuration not stated)
MIC: 0.05 µg/mL (≈ 0.134 µM)
